Assay results: US6002009A, “Di-substituted 1,4-piperidine esters and amides having 5-HT4 antagonistic activity” (Boehringer Ingelheim Italia, S.p.A., priority 1995, dated 1999)

target: 5-HT4 receptor (Sus scrofa, UniProt Q6Q253); experiment: 5-HT4 receptor binding (competition against [^3 H]-GR 113808, pig striatum); conditions: 0.1 nM [^3 H]-GR 113808, 30 min at 37° C., read-out: Ki (affinity for the 5-HT4 receptor)
Protocol: The affinity of the compounds of formula (I) for 5-HT4 serotoninergic receptors was tested "in vitro" by receptor binding studies in the pig striatum, a tissue particularly rich in 5-HT4 receptors.
Receptor binding studies on 5-HT4 receptor were carried out to determine the affinity of the test compounds.
Pig striatum was removed, cleaned and homogenized (w/v 1:70) with an Ultra-Turrax at maximal speed for 30 s, followed by use of a Potter-Elvehjem homogenizer (30 strokes) in 50 mM Hepes buffer, pH 7.4 and filtered through two layers of cheese-cloth.
Binding curves for the different compounds were derived indirectly from competition experiments against 0.1 nM [^3 H]-GR 113808.
A 1 ml aliquot of homogenate was incubated for 30 min at 37° C. in the presence of the marker ligand and different concentrations of the cold ligands.
The incubation was stopped by rapid filtration using an automatic apparatus (1H -110 Inotech). The filters (Inotech glass fibre filter, type G7) were then transferred to scintillation vials containing 4 ml of Filter Count (Packard) and the radioactivity present was counted by liquid scintillation spectrometry (Kontron Betamat V). Assays were carried out in triplicated and non specific binding was defined as the radioactivity bound or entrapped in the filter when the incubation medium contained 10 μM of BIMU 0001 (3-ethyl-2,3-dihydro-2-oxo-benzimidazole-1(3a-tropyl carboxamide). Non specific binding was about 10-15%. The inhibition constant (Ki) was calculated after correction for the radioligand occupancy shift according to the equation of Cheng and Prusoff (Biochem. Pharmacol. 22, 3099, 1973).

Chain of 5-HT4 receptor (Q6Q253 1-402): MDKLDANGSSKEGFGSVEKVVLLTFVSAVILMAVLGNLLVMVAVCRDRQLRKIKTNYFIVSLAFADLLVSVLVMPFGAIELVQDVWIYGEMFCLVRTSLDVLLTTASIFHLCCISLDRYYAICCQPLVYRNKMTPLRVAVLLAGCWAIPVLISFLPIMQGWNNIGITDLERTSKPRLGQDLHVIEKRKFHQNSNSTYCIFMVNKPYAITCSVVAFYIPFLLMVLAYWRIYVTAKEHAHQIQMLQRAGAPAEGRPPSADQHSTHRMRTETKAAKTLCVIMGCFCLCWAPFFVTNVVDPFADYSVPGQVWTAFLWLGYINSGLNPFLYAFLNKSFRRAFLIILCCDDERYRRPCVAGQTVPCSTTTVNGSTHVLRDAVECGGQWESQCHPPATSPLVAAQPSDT

First: CCNC(=O)N[C@@H](Cc1c[nH]c2ccccc12)CN1CCC(COC(=O)c2cc(Cl)c(N)cc2OC)CC1 [Compound 1, S(+)-4-Amino-5-chloro-2-methoxy-benzoic acid {1-[2-(3-ethyl-ureido)-3-(1H-indol-3-yl)propyl]piperidin-4-yl} methyl, ester]
Second: COc1cc(N)c(Cl)cc1C(=O)OCC1CCN(C[C@H](Cc2c[nH]c3ccccc23)NC(=O)OCc2ccccc2)CC1 [Compound 10, S(+)-4-Amino-5-chloro-2-methoxybenzoic acid {1-[2-benzyloxycarbonyl-amino-3-(1H-indol-3-yl)-propyl]piperidin-4-yl} methyl ester]
The Ki of the first is 2.2-fold higher: 4.6 nM for the first, 2.1 nM for the second.

Compared with `CCOC(=O)N[C@@H](CCSC)CN1CCC(COC(=O)c2cc(Cl)c(N)cc2OC)CC1` [Compound 9, S(+)-4-Amino-5-chloro-2-methoxy-benzoic acid [1-(2-ethoxycarbonyl-amino-4-methylthio-butyl)-piperidin-4-yl]methyl ester], `COc1cc(N)c(Cl)cc1C(=O)OCC1CCN(C[C@H](Cc2ccccc2)NC(=O)OCc2ccccc2)CC1` [Compound 11, S(+)-4-Amino-5-chloro-2-methoxybenzoic acid [1-(2-benzyloxycarbonyl-amino-3-phenyl-propyl)-piperidin-4-yl]methyl ester] is 3.9-fold lower in Ki: 4.3 nM for the first, 1.1 nM for the second. The second binds more tightly here.

Compared with `CCOC(=O)N[C@@H](CO)CN1CCC(COC(=O)n2c3ccccc3c3ccccc32)CC1` [Compound 12, R(+)-Carbazole-9-carboxylic acid [1(2-ethoxycarbonyl-amino-3-hydroxy-propyl)-piperidin-4-yl]methyl ester], `CCNC(=O)N[C@@H](CO)CN1CCC(COC(=O)n2c3ccccc3c3ccccc32)CC1` [Compound 13, R(+)-Carbazole-9-carboxylic acid {1-[2-(3-ethyl-ureido)-3-hydroxy-propyl]-piperidin-4-yl} methyl ester] is 1.5-fold higher in Ki: 2.8 nM for the first, 4.3 nM for the second.

Compared with `O=C(Nc1ccccc1)N[C@@H](CO)CN1CCC(COC(=O)c2c[nH]c3ccc(F)cc23)CC1` [Compound 16, R(+)-5-Fluoro-1H-indol-3-carboxylic acid {1-[2-(3-phenyl-ureido)-3-hydroxy-propyl]-piperidin-4-yl} methyl ester], `COc1[nH]c2ccc(F)cc2c1C(=O)OCC1CCN(C[C@H](CO)NC(=O)OCc2ccccc2)CC1` [Compound 17, R(+)-5-Fluoro-2-methoxy-1H-indol-3-carboxylic acid [1-(2-benzyloxycarbonyl-amino-3-hydroxy-propyl)-piperidin-4-yl]methyl ester] is 18-fold lower in Ki: 2.9 nM for the first, 0.16 nM for the second.

Going from `CCOC(=O)N[C@@H](CO)CN1CCC(COC(=O)c2c(OC)[nH]c3ccc(F)cc23)CC1` [Compound 19, R(+)-5-Fluoro-2-methoxy-1H-indol-3-carboxylic acid [1-(2-ethoxycarbonyl-amino-3-hydroxy-propyl)piperidin-4-yl]methyl ester] to `C[C@@H](CN1CCC(COC(=O)n2c(=O)[nH]c3ccccc32)CC1)NC(=O)OCc1ccccc1` [Compound 21, S(+)-2-Oxo-2,3-dihydro-benzimidazol-1-carboxylic acid [1-(2-benzyloxycarbonyl-amino)-propyl-piperidin-4-yl]-methyl ester], the Ki rises from 0.25 nM to 1.3 nM (5.2-fold). The first binds more tightly here.

Going from `CCn1c(=O)n(C(=O)OCC2CCN(C[C@H](C)NC(=O)OCc3ccccc3)CC2)c2ccccc21` [Compound 23, S(+)-3-Ethyl-2-oxo-2,3-dihydro-benzimidazol-1-carboxylic acid [1-(2-benzyloxycarbonyl-amino)-propyl-piperidin-4-yl]-methyl ester] to `CCn1c(=O)n(C(=O)NCC2CCN(C[C@H](CO)NC(=O)OCc3ccccc3)CC2)c2ccccc21` [Compound 37, R(+)-3-Ethyl-2-oxo-2,3-dihydro-benzimidazol-1-carboxamide-[1-(2-benzyloxycarbonylamino-3-hydroxy-propyl)-piperidin-4-yl-methyl]], the Ki falls from 0.86 nM to 0.37 nM (2.3-fold).

Compared with `CCn1c(=O)n(C(=O)NCC2CCN(C[C@H](CCSC)NC(=O)Nc3ccccc3)CC2)c2ccccc21` [Compound 26, S(-)-3-Ethyl-2-oxo-2,3-dihydro-benzimidazol-1-carboxamide-{1-[2-(3-phenyl-ureido)-4-methylthio-butyl]-piperidin-4-yl-methyl}], `CCn1c(=O)n(C(=O)NCC2CCN(C[C@H](CO)NC(=O)Nc3ccccc3)CC2)c2ccccc21` [Compound 35, R(+)-3-Ethyl-2-oxo-2,3-dihydro-benzimidazol-1-carboxamide-{1-[2-(3-phenyl-ureido)-3-hydroxy-propyl]-piperidin-4-yl-methyl}] is 1.6-fold higher in Ki: 1 nM for the first, 1.6 nM for the second. The first binds more tightly here.

`CCn1c(=O)n(C(=O)NCC2CCN(C[C@H](CC(N)=O)NC(=O)Nc3ccccc3)CC2)c2ccccc21` [Compound 30, S(+)-3-Ethyl-2-oxo-2,3-dihydro-benzimidazol-1-carboxamide-{1-[2-(3-phenyl-ureido)-3-carbamoyl-propyl]-piperidin-4-yl-methyl}] and `CCNC(=O)N[C@@H](CO)CN1CCC(CNC(=O)n2c(=O)n(CC)c3ccccc32)CC1` [Compound 36] are within 1.5-fold of each other in Ki: 4.3 nM for the first, 3 nM for the second.

Work on `CCOC(=O)N[C@@H](CCSC)CN1CCC(CNC(=O)n2c(=O)n(CC)c3ccccc32)CC1` [Compound 34, S(+)-3-Ethyl-2-oxo-2,3-dihydro-benzimidazol-1-carboxamide-[1-(2-ethoxycarbonylamino-4-methylthio-butyl)-piperidin-4-yl-methl]] yielded a Ki of 3.2 nM.
